This is an account of results in EP4603105A1, “PHARMACEUTICAL COMPOSITION CONTAINING CYCLIC COMPOUND HAVING SELECTIVE KRAS INHIBITORY EFFECT AGAINST HRAS AND NRAS” (CHUGAI SEIYAKU KABUSHIKI KAISHA, priority 2022, dated 2024).

Test [1] deals with GDP-bound KRAS wild-type protein (Homo sapiens, UniProt P01116). Put plainly: Binding to KRAS by surface plasmon resonance (SPR), dissociation constant KD. As to conditions: 1:1 binding model. The method in brief: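 SPR, 30°C: Avi-biotin RAS·GDP captured via Biotin CAPture (~100–300 RU); running buffer HBS pH 7.4, 1 mM DTT, 10 mM MgCl2, 0.01% Tween 20, 10 µM GDP, 4% DMSO. Single-cycle kinetics, 100 µL/min, 75 s injections; 1:1 model → KD.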

For test [2], the target named is GDP-bound NRAS wild-type protein (Homo sapiens, UniProt P01111). Kind of test: Binding to NRAS by surface plasmon resonance (SPR), KD and KD ratio to KRAS. The method in brief:
(§1)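 Recombinant RAS proteins bearing a biotinylated Avi tag and loaded with GDP served as the captured ligand, recaptured fresh every cycle. Binding responses were referenced to an uncoated surface and a buffer-only blank cycle. Dissociation constants were obtained by 1:1 model fitting at 30°C.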

For another test, the target named is HRAS wild-type protein (Homo sapiens, UniProt P01112). Put plainly: Binding to HRAS by surface plasmon resonance (SPR), KD and KD ratio to KRAS. The method in brief: as §1
In test [3] the test system is human lung cancer strain NCI-H441. The class given is cell-based. The method in brief: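 Signal came from […] measured per well once the reagent was added. Beforehand, cells were cultured at 37°C and 5% carbon dioxide on a compound series serially diluted in dimethyl sulfoxide.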
The mark [4] stands for this setting: ratio of KD value for GDP-bound NRAS wild-type protein to KD value for KRAS (SPR).
Setting [5] is: ratio of KD value for HRAS wild-type protein to KD value for KRAS (SPR).
Setting [6] is: ratio of KD for GDP-bound NRAS wild-type protein to KD for KRAS.
Setting [7] is: ratio of KD for HRAS wild-type protein to KD for KRAS.
[8] abbreviates: ratio of the KD value with respect to GDP-bound NRAS wild-type protein to the KD value with respect to KRAS.
Where [9] appears, read: ratio of the KD value with respect to HRAS wild-type protein to the KD value with respect to KRAS.

Molecules are shown by their SMILES. Some results are limits rather than exact numbers.

Sequence of GDP-bound KRAS wild-type protein (P01116 1-188 isoform P01116-2): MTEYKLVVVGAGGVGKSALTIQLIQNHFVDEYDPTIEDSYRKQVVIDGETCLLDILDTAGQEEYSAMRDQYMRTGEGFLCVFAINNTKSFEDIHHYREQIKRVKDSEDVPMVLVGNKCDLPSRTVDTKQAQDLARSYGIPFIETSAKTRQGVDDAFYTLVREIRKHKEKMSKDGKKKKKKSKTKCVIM
Sequence of HRAS wild-type protein (P01112 whole entry): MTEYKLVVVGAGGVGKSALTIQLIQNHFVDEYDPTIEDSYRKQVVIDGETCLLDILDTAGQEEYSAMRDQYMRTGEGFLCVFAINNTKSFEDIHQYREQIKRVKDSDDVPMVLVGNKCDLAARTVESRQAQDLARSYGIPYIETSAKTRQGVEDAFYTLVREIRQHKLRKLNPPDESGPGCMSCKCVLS
Sequence of GDP-bound NRAS wild-type protein (P01111 whole entry): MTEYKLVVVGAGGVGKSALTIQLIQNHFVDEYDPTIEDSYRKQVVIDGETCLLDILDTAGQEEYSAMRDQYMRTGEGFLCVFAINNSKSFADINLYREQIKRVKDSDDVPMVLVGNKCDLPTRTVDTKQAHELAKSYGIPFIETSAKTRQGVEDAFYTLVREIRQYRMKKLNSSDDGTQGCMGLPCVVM

In turn, `CCO[C@@H]1C[C@H]2C(=O)NC3(CC(C)(C)C3)C(=O)N(C)[C@@H](C3CCCC3)C(=O)N(C)[C@@H](C(C)C)CC(=O)N(C)[C@@H](CC3CC3)C(=O)N[C@@H]([C@@H](C)CC)C(=O)N(C)CC(=O)N(C)[C@H]3C/C=C\CCN(C3=O)[C@@H](Cc3ccc(C(F)(F)F)cc3)C(=O)N(C)CC(=O)N[C@@H](CCc3cc(F)c(C(F)(F)F)c(F)c3)C(=O)N2C1` [PP1594] had a dissociation constant Kd in test [1] (Single Cycle Kinetics) of 0.71 nM. For the same compound, in test [2] (setting [4]), the “NRAS /KRAS” value is “A (a compound having 10 or more and less than 20 is denoted as A)”. The “HRAS /KRAS” value at HRAS wild-type protein (setting [5]) was “A (a compound having 10 or more and less than 20 is denoted as A)”. The compound also returned an IC50 in test [3] of 48.8 nM.

Take `C=CC[C@@H]1NC(=O)[C@H](CC2CC2)N(C)C(=O)C[C@@H](C(=O)N(C)CC=C)N(C)C(=O)[C@H](C2CCCC2)N(C)C(=O)C2(CCC2)NC(=O)[C@@H]2C[C@@H](OCC)CN2C(=O)[C@H](CCc2cc(F)c(C(F)(F)F)c(F)c2)NC(=O)CN(C)C(=O)[C@H](Cc2ccc(C(F)(F)F)cc2)N2CC/C=C\C[C@@H](C2=O)N(C)C(=O)CN(C)C1=O` [PP1557]: the affinity in test [1] (Single Cycle Kinetics), expressed as Kd, was 1.2 nM. In addition, in test [2] (setting [4]), the “NRAS /KRAS” value is “A (a compound having 10 or more and less than 20 is denoted as A)”. In addition, the “HRAS /KRAS” value at HRAS wild-type protein (setting [5]) is “A (a compound having 10 or more and less than 20 is denoted as A)”. Also, in test [3], the IC50 amounted to 86.3 nM.

In the case of `CCC[C@H]1C(=O)N[C@@H]([C@@H](C)CC)C(=O)N(C)CC(=O)N(C)[C@H]2C/C=C\CCN(C2=O)[C@@H](Cc2ccc(C(F)(F)F)cc2)C(=O)N(C)CC(=O)N[C@@H](CCc2ccc3c(C)c(C)n(C)c3c2)C(=O)N2C[C@H](OCC)C[C@H]2C(=O)NC2(CC(C)(C)C2)C(=O)N(C)[C@@H](C(CC)CC)C(=O)N(C)[C@H](C(=O)N(C)C)CC(=O)N1C` [PP2904], the affinity in test [1], expressed as Kd, was 3.8 nM. In addition, the “NRAS /KRAS” value in test [2] (setting [6]) was “AA (a compound having 20 or more is denoted as AA)”. The “HRAS /KRAS” value at HRAS wild-type protein (setting [7]) is “A (a compound having 10 or more and less than 20 is denoted as A)”. Inhibition in test [3] was half-maximal at 82.4 nM (IC50).

`CCO[C@@H]1C[C@H]2C(=O)NC3(CC(C)(C)C3)C(=O)N(C)[C@@H](C3CCCC3)C(=O)N(C)[C@H](C(=O)N(C)C)CC(=O)N(C)[C@@H](CC3CCCC3)C(=O)N[C@@H]([C@@H](C)CC)C(=O)N(C)CC(=O)N(C)[C@H]3C/C=C\CCN(C3=O)[C@@H](Cc3ccc(C(F)(F)F)cc3)C(=O)N(C)CC(=O)N[C@@H](CCc3ccc(C(F)(F)F)c(OC)c3)C(=O)N2C1` [PP1565] came in with a Kd in test [1] (Single Cycle Kinetics) of 0.11 nM. In addition, the “NRAS /KRAS” value in test [2] (setting [4]) is “A (a compound having 10 or more and less than 20 is denoted as A)”. The “HRAS /KRAS” value on HRAS wild-type protein (setting [5]) was “B (a compound having 3 or more and less than 10 is denoted as B)”. Moreover, the half-inhibitory concentration (IC50) in test [3] is 6.5 nM.

In test [1] (Single Cycle Kinetics), `CC[C@H](C)[C@@H]1NC(=O)[C@H](CC(C)C)N(C)C(=O)C[C@@H](C(=O)N2CCOCC2)N(C)C(=O)[C@H](C2CCCC2)N(C)C(=O)C2(CCCC2)NC(=O)[C@@H]2CCCN2C(=O)[C@H](CCc2cc(F)c(C(F)(F)F)c(F)c2)NC(=O)CN(C)C(=O)[C@H](Cc2ccc(C(F)(F)F)cc2)N2CCCC[C@@H](C2=O)N(C)C(=O)[C@H](CC)N(C)C1=O` [PP0551] returned a Kd of 38 nM. Also, the “NRAS /KRAS” value in test [2] (setting [8]) was “C (A compound having a KD ratio of 0.1 or more and less than 3 is denoted as C)”. The “HRAS /KRAS” value on HRAS wild-type protein (setting [9]) is “B (a compound having 3 or more and less than 10 is denoted as B)”. This compound also yielded a half-maximal inhibitory concentration (IC50) in test [3] of 401 nM.

With `CCO[C@@H]1C[C@H]2C(=O)NC3(CC(C)(C)C3)C(=O)N(C)[C@@H](C3CCCC3)C(=O)N(C)[C@H](C(=O)N(C)CC)CC(=O)N(C)[C@@H](CC(C)C)C(=O)N[C@@H]([C@@H](C)CC)C(=O)N(C)CC(=O)N(C)[C@H]3C/C=C\CCN(C3=O)[C@@H](Cc3ccc(C(F)F)cc3)C(=O)N(C)CC(=O)N[C@@H](CCc3cc(C)c(C(F)F)c(Cl)c3)C(=O)N2C1` [PP3146], in test [1], binding was characterised by a dissociation constant (Kd) of 1.4 nM. The “NRAS /KRAS” value in test [2] (setting [6]) was “A (a compound having 10 or more and less than 20 is denoted as A)”. Also, the “HRAS /KRAS” value on HRAS wild-type protein (setting [7]) was “A (a compound having 10 or more and less than 20 is denoted as A)”. This compound also came in with a half-inhibitory concentration (IC50) in test [3] of 41.8 nM.

For `CCO[C@@H]1C[C@H]2C(=O)NC3(CCC3)C(=O)N(C)[C@@H](C3CCCC3)C(=O)N(C)[C@H](C(=O)N(CC)CC)CC(=O)N(C)[C@@H](CC(C)C)C(=O)N[C@@H]([C@@H](C)CC)C(=O)N(C)CC(=O)N(C)[C@H]3C/C=C\CCN(C3=O)[C@@H](Cc3ccc(C)cc3)C(=O)N(C)CC(=O)N[C@@H](CCc3ccc(C(F)(F)F)c(OC)c3)C(=O)N2C1` [PP1851], the Kd in test [1] (Single Cycle Kinetics) came to 1.8 nM. Also, the “NRAS /KRAS” value in test [2] (setting [4]) is “A (a compound having 10 or more and less than 20 is denoted as A)”. On HRAS wild-type protein (setting [5]), the “HRAS /KRAS” value was “A (a compound having 10 or more and less than 20 is denoted as A)”. The same compound showed an IC50 in test [3] of 165 nM.

As to `CCC[C@H]1C(=O)N[C@@H]([C@@H](C)CC)C(=O)N(C)CC(=O)N(C)[C@H]2C/C=C\CCN(C2=O)[C@@H](Cc2ccc(C)cc2)C(=O)N(C)CC(=O)N[C@@H](CCc2ccc3c(C)c(C)n(C)c3c2)C(=O)N2C[C@H](OCC)C[C@H]2C(=O)NC2(CC(C)(C)C2)C(=O)N(C)[C@@H](C(CC)CC)C(=O)N(C)[C@H](C(=O)N(C)C)CC(=O)N1C` [PP2906], the affinity in test [1], expressed as Kd, was 5.5 nM. Further, the “NRAS /KRAS” value in test [2] (setting [6]) is “A (a compound having 10 or more and less than 20 is denoted as A)”. The “HRAS /KRAS” value on HRAS wild-type protein (setting [7]) was “A (a compound having 10 or more and less than 20 is denoted as A)”. The IC50 in test [3] stood at 99.3 nM.

In test [1] (Single Cycle Kinetics), `CC[C@H](C)[C@@H]1NC(=O)[C@H](CC(C)C)N(C)C(=O)C[C@@H](C(=O)N2CCOCC2)N(C)C(=O)[C@H](C2CCCC2)N(C)C(=O)C2(CCCC2)NC(=O)[C@@H]2CCCN2C(=O)[C@H](CCc2ccc(C(F)(F)F)c(Cl)c2)NC(=O)CN(C)C(=O)[C@H](Cc2ccc(F)cc2)N2CCCC[C@@H](C2=O)N(C)C(=O)CN(C)C1=O` [PP0530] showed a dissociation constant (Kd) of 0.06 nM. Besides, in test [2] (setting [8]), the “NRAS /KRAS” value was “C (A compound having a KD ratio of 0.1 or more and less than 3 is denoted as C)”. Also, the “HRAS /KRAS” value at HRAS wild-type protein (setting [9]) is “B (a compound having 3 or more and less than 10 is denoted as B)”. The IC50 in test [3] is 7 nM.

Regarding `CCO[C@@H]1C[C@H]2C(=O)NC3(CCC3)C(=O)N(C)[C@@H](C3CCCC3)C(=O)N(CCC3CCCC3)[C@H](C(=O)N3CCOCC3)CC(=O)N(C)[C@@H](CC(C)C)C(=O)N[C@@H]([C@@H](C)CC)C(=O)N(C)CC(=O)N(C)[C@H]3CCCCCN(C3=O)[C@@H](Cc3ccc(C(F)(F)F)cc3)C(=O)N(C)CC(=O)N[C@@H](CCc3cc(F)c(C(F)(F)F)c(F)c3)C(=O)N2C1` [PP0641], the Kd in test [1] (Single Cycle Kinetics) came out at 26 nM. Also, in test [2] (setting [8]), the “NRAS /KRAS” value was “A (a compound having 10 or more and less than 20 is denoted as A)”. Moreover, the “HRAS /KRAS” value on HRAS wild-type protein (setting [9]) is “A (a compound having 10 or more and less than 20 is denoted as A)”. The compound further came in with a concentration for half-maximal inhibition (IC50) in test [3] of more than 1300 nM.

For the compound `CCO[C@@H]1C[C@H]2C(=O)NC3(CC(C)(C)C3)C(=O)N(C)[C@@H](C3CCCC3)C(=O)N(C)[C@H](C(=O)N(C)CC)CC(=O)N(C)[C@@H](CC(C)C)C(=O)N[C@@H]([C@@H](C)CC)C(=O)N(C)CC(=O)N(C)[C@H]3C/C=C\CCN(C3=O)[C@@H](Cc3ccc(C(F)F)cc3)C(=O)N(C)CC(=O)N[C@@H](CCc3ccc(C4CC4)c(C)c3)C(=O)N2C1` [PP3156], the Kd in test [1] worked out at 2 nM. Further, the “NRAS /KRAS” value in test [2] (setting [6]) was “A (a compound having 10 or more and less than 20 is denoted as A)”. Also, on HRAS wild-type protein (setting [7]), the “HRAS /KRAS” value was “A (a compound having 10 or more and less than 20 is denoted as A)”. In test [3], this compound showed an IC50 of 63.8 nM.
